Assay type in all cases: in vivo
For data set [1], the system named is bentgrass (Agrostis palustris) variety Crenshaw. Description: Turfgrass quality assessment, Example 1. The method, then:
(§1) Compositions comprising methyl jasmonate (as a SL formulation, purchased from Fischer), trinexapac-ethyl (in the form of Primo MAXX®), or both (as a tank mix) were tested at various rates for effects on bentgrass (Agrostis palustris) variety Crenshaw. All treatments included the adjuvant NIS, at 0.25% v/v. Assessments of percentage injury to the turfgrass, and turfgrass quality (on a standard scale of 1 to 9) were made at various time intervals after treatment.

For data set [2] the test system is unchanged. Nature of the data set: Turfgrass colour assessment, Example 1. Particulars: 43 DA-A (17 DA-B). Here is the method: as §1
The test system of data set [3] is bentgrass (Agrostis palustris) variety A1. Nature of the data set: Colour (greenness) assessment, Example 2. Particulars: TXP 0 g ai/ha.
Data set [4] has as its system bentgrass (Agrostis palustris) variety Crenshaw. Nature of the data set: Percentage injury to the turfgrass, Example 1. Particulars: TXP 96 g ai/ha, methyl jasmonate 0 g ai/ha. Here is the method: Compositions comprising methyl jasmonate (as a SL formulation, purchased from Fischer), trinexapac-ethyl (in the form of Primo MAXX®), or both (as a tank mix) were tested at various rates for effects on bentgrass (Agrostis palustris) variety Crenshaw. All treatments included the adjuvant NIS, at 0.25% v/v.

Data set [5] relates to bentgrass (Agrostis palustris) variety A1. Description: Colour (greenness) assessment, Example 2. Particulars: jasmonic acid 0 g ai/ha. Here is the method:
Compositions comprising methyl jasmonate (purchased from Aldrich), trinexapac-ethyl (in the form of Primo MAXX® 120EC), or both (as a tank mix) were tested at various rates for effects on bentgrass (Agrostis palustris) variety A1. Assessments of greenness were made at 5 and 12 days after the second treatment.

Turning to `CC/C=C\C[C@H]1C(=O)CC[C@@H]1CC(=O)OC` [Methyl jasmonate only, methyl (1R,2R)-3-Oxo-2-(2Z)-2-pentenyl-cyclopentaneacetate], the “Quality (scale: 1 poor to 9 excellent)” value in data set [1] (TXP 0 g ai/ha, methyl jasmonate 168 g ai/ha, 33 DA-A (7 DA-B)) turned out to be 7.1; in data set [1] (TXP 0 g ai/ha, methyl jasmonate 168 g ai/ha, 43 DA-A (17 DA-B)), 7.2; in data set [1] (TXP 0 g ai/ha, methyl jasmonate 168 g ai/ha, 56 DA-A (30 DA-B)), 7.0; in data set [1] (TXP 0 g ai/ha, methyl jasmonate 336 g ai/ha, 33 DA-A (7 DA-B)) it was 7.0; in data set [1] (TXP 0 g ai/ha, methyl jasmonate 336 g ai/ha, 43 DA-A (17 DA-B)), 7.2; in data set [1] (TXP 0 g ai/ha, methyl jasmonate 336 g ai/ha, 56 DA-A (30 DA-B)) it was 7.0. Besides, the “Quality (scale: 1 poor to 9 excellent)” value in data set [1] (TXP 0 g ai/ha, methyl jasmonate 670 g ai/ha, 33 DA-A (7 DA-B)) is on record as 6.9; in data set [1] (TXP 0 g ai/ha, methyl jasmonate 670 g ai/ha, 43 DA-A (17 DA-B)), 7.0; in data set [1] (TXP 0 g ai/ha, methyl jasmonate 670 g ai/ha, 56 DA-A (30 DA-B)) it was 7.0. Also, the “Colour (scale: 1 poor to 9 excellent)” value is listed as 7.2 in data set [2] (TXP 0 g ai/ha, methyl jasmonate 168 g ai/ha); 7.2 in data set [2] (TXP 0 g ai/ha, methyl jasmonate 336 g ai/ha); 7.0 in data set [2] (TXP 0 g ai/ha, methyl jasmonate 670 g ai/ha). Further, the “Greenness (scale of 1-10 by comparison with the untreated control)” value came out at 0.0 in data set [3] (jasmonic acid 168 g ai/ha, 5 DA-B); 0.5 in data set [3] (jasmonic acid 168 g ai/ha, 12 DA-B); 0.0 in data set [3] (jasmonic acid 336 g ai/ha, 5 DA-B); 0.0 in data set [3] (jasmonic acid 336 g ai/ha, 12 DA-B); 0.0 in data set [3] (jasmonic acid 672 g ai/ha, 5 DA-B); 0.0 in data set [3] (jasmonic acid 672 g ai/ha, 12 DA-B).

`CCOC(=O)C1CC(=O)C(=C(O)C2CC2)C(=O)C1` (stereo not shown) [Trinexapac-ethyl only, trinexapac-ethyl]: the “Quality (scale: 1 poor to 9 excellent)” value in data set [1] (TXP 96 g ai/ha, methyl jasmonate 0 g ai/ha, 33 DA-A (7 DA-B)) is recorded as 7.2; in data set [1] (TXP 96 g ai/ha, methyl jasmonate 0 g ai/ha, 43 DA-A (17 DA-B)), 7.4; in data set [1] (TXP 96 g ai/ha, methyl jasmonate 0 g ai/ha, 56 DA-A (30 DA-B)), 7.0. For the same molecule, the “Colour (scale: 1 poor to 9 excellent)” value in data set [2] (TXP 96 g ai/ha, methyl jasmonate 0 g ai/ha) was found to be 7.3. Moreover, the “Injury (%)” value in data set [4] (8 DA-A) was 5%; in data set [4] (14 DA-A), 7%. Moreover, the “Greenness (scale of 1-10 by comparison with the untreated control)” value in data set [5] (TXP 57 g ai/ha, 5 DA-B) worked out at 0.0; in data set [5] (TXP 57 g ai/ha, 12 DA-B), 0.0; in data set [5] (TXP 96 g ai/ha, 5 DA-B), 3.5; in data set [5] (TXP 96 g ai/ha, 12 DA-B), 3.5.

Values taken from patent publication US8470736B2, “Turfgrass quality” (Syngenta Crop Protection, LLC, priority 2008, dated 2013).
